Test results reported in the supplement of paper PMC10307832.

How the values were obtained:
Assay in all cases: relative viability (nuclei count vs DMSO), 5 days (fraction); higher = more cells survive
Obatoclax + Linsitinib = compound: COC1=CC(c2cc3ccccc3[nH]2)=N/C1=C\c1[nH]c(C)cc1C [Obatoclax] + C[C@]1(O)C[C@@H](c2nc(-c3ccc4ccc(-c5ccccc5)nc4c3)c3c(N)nccn32)C1 [Linsitinib] (partner 1 µM)
Summary of the method: (§1)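 A single step with final 0.05% Triton X-100, 1% formaldehyde and 1 ug/ml Hoechst fixed the cells and stained nuclei 5 days after treatment. Lung cancer cell lines in 1536-well plates had been treated by pin tool the day after seeding with one drug alone or a fixed anchor-drug dose plus five library-drug doses (not always all listed) in √10 steps, and nuclei were counted on 4× images. Relative viability is the ratio of nuclei in treated wells to nuclei in vehicle wells, taken as the median of duplicate plates.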

Bortezomib + Crizotinib = compound: CC(C)C[C@H](NC(=O)[C@H](Cc1ccccc1)NC(=O)c1cnccn1)B(O)O [Bortezomib] + C[C@@H](Oc1cc(-c2cnn(C3CCNCC3)c2)cnc1N)c1c(Cl)ccc(F)c1Cl [Crizotinib] (partner 1 µM)
Summary of the method: as §1

Bortezomib + Linsitinib = compound: CC(C)C[C@H](NC(=O)[C@H](Cc1ccccc1)NC(=O)c1cnccn1)B(O)O [Bortezomib] + C[C@]1(O)C[C@@H](c2nc(-c3ccc4ccc(-c5ccccc5)nc4c3)c3c(N)nccn32)C1 [Linsitinib] (partner 1 µM)
Summary of the method: as §1

Obatoclax + Olaparib = compound: COC1=CC(c2cc3ccccc3[nH]2)=N/C1=C\c1[nH]c(C)cc1C [Obatoclax] + O=C(c1cc(Cc2n[nH]c(=O)c3ccccc23)ccc1F)N1CCN(C(=O)C2CC2)CC1 [Olaparib] (partner 8 µM)
Summary of the method: as §1

Row | Cell Line | relative viability (Obatoclax + Linsitinib; first compound 0.01 µM) | relative viability (Obatoclax + Linsitinib; first compound 0.03162 µM) | relative viability (Obatoclax + Linsitinib; first compound 0.1 µM) | relative viability (Obatoclax + Linsitinib; first compound 0.3162 µM) | relative viability (Obatoclax + Linsitinib; first compound 1 µM) | relative viability (Bortezomib + Crizotinib; first compound 0.0002 µM) | relative viability (Bortezomib + Crizotinib; first compound 0.000632 µM) | relative viability (Bortezomib + Crizotinib; first compound 0.002 µM) | relative viability (Bortezomib + Crizotinib; first compound 0.006325 µM) | relative viability (Bortezomib + Crizotinib; first compound 0.02 µM) | relative viability (Bortezomib + Linsitinib; first compound 0.0002 µM) | relative viability (Bortezomib + Linsitinib; first compound 0.000632 µM) | relative viability (Bortezomib + Linsitinib; first compound 0.002 µM) | relative viability (Bortezomib + Linsitinib; first compound 0.006325 µM) | relative viability (Bortezomib + Linsitinib; first compound 0.02 µM) | relative viability (Obatoclax + Olaparib; first compound 0.01 µM) | relative viability (Obatoclax + Olaparib; first compound 0.03162 µM) | relative viability (Obatoclax + Olaparib; first compound 0.1 µM) | relative viability (Obatoclax + Olaparib; first compound 0.3162 µM) | relative viability (Obatoclax + Olaparib; first compound 1 µM)
1 | 201T | 1.04 | 1.01 | 1.02 | 1.06 | 1.03 | 0.999 | 1.07 | 1.02 | 1.02 | 0.32 | 1.04 | 1.1 | 0.921 | 1.08 | 0.4 | 0.873 | 0.782 | 0.838 | 0.823 | 0.831
2 | LC-2-ad | 0.829 | 0.828 | 0.906 | 0.688 | 0.434 |  | 0.476 | 0.403 | 0.291 | 0.19 | 0.798 |  | 0.811 | 0.151 | 0.127 | 0.693 | 0.676 | 0.732 | 0.723 | 0.648
3 | NCI-H596 | 1.07 | 0.945 | 0.809 | 0.66 | 0.731 | 0.98 | 0.957 | 1.02 | 0.224 | 0.182 | 0.894 | 0.813 | 1.09 | 0.233 | 0.18 | 0.671 | 0.675 | 0.552 | 0.492 | 0.458
4 | NCI-H1437 | 1.01 | 0.988 | 0.979 | 0.912 | 0.705 | 0.966 | 0.894 | 0.92 | 0.0811 | 0.0914 | 1.04 | 1.1 | 0.885 | 0.0922 | 0.101 | 0.634 | 0.623 | 0.626 | 0.623 | 0.533
5 | NCI-H727 | 0.372 | 0.28 | 0.343 | 0.267 | 0.231 | 0.774 | 0.864 | 0.91 | 0.155 | 0.0951 | 0.354 | 0.289 | 0.408 | 0.189 | 0.0878 | 0.815 | 0.883 | 0.708 | 0.637 | 0.697
6 | PC-3 [JPC-3] | 0.947 | 0.936 | 0.963 | 0.989 | 0.898 | 1.01 | 0.98 | 0.726 | 0.934 | 0.133 | 0.989 | 0.929 | 0.87 | 0.916 | 0.186 | 1.09 | 1.25 | 1.02 | 1 | 0.514
7 | SW 1573 | 0.768 | 0.832 | 0.803 | 0.801 | 0.81 | 0.851 | 0.82 | 0.631 | 0.181 | 0.0539 | 0.663 | 0.775 | 0.766 | 0.144 | 0.0774 | 0.488 | 0.529 | 0.363 | 0.149 | 0.179
8 | NCI-H2228 | 0.536 | 1.03 | 1.12 | 0.445 | 0.448 | 0.521 | 0.482 | 0.376 | 0.166 | 0.163 | 0.671 | 0.717 | 0.506 | 0.157 | 0.133 | 0.583 | 0.521 | 0.62 | 0.489 | 0.405
9 | NCI-H1650 |  |  |  |  |  | 0.973 | 0.93 | 0.158 | 0.124 | 0.147 |  |  |  |  |  | 0.764 | 0.742 | 0.774 | 0.539 | 0.229
10 | NCI-H1944 | 1.1 | 1.2 | 1.27 | 1.19 | 1.3 | 1.06 | 1.04 | 0.899 | 1.21 | 0.142 | 1.13 | 1.06 | 1.06 | 1.23 | 0.627 | 0.412 | 0.427 | 0.443 | 0.418 | 0.392
11 | NCI-H1792 | 0.667 | 0.502 |  | 0.48 | 0.561 | 0.893 | 0.974 | 0.952 | 0.933 | 0.729 | 0.526 | 0.594 | 0.352 | 0.537 | 0.221 | 0.423 | 0.334 | 0.299 | 0.369 | 0.405
12 | COR-L 105 | 0.989 | 0.964 | 0.998 | 1.06 | 0.401 | 0.673 | 0.741 | 0.577 | 0.206 | 0.215 | 0.848 | 0.99 | 0.711 | 0.293 | 0.282 | 0.727 | 0.76 | 0.737 | 0.672 | 0.457
13 | LU99A | 0.486 | 0.437 | 0.498 | 0.307 | 0.475 | 0.592 |  | 0.561 | 0.274 | 0.153 | 0.55 |  | 0.599 | 0.337 | 0.149 | 0.292 | 0.243 |  | 0.313 | 0.321
14 | H3255 | 0.893 | 0.976 | 0.985 | 0.884 | 0.892 | 0.734 | 0.914 | 0.452 | 0.195 | 0.208 | 0.914 | 1.02 | 0.705 | 0.263 | 0.19 | 0.537 | 0.608 | 0.541 | 0.557 | 0.546
15 | NCI-H1395 | 1.23 | 0.922 | 0.884 | 0.926 | 0.526 |  |  |  |  |  | 1.02 | 0.97 | 0.463 | 0.382 | 0.347 | 0.454 | 0.418 | 0.444 | 0.529 | 0.332
16 | NCI-H2342 |  |  |  |  |  |  |  |  |  |  |  |  |  |  |  | 0.419 | 0.409 | 0.448 | 0.515 | 0.473
17 | ChaGo-K-1 |  |  |  |  |  |  |  | 1.11 | 0.304 | 0.236 |  |  |  |  |  | 0.4 | 0.439 | 0.391 | 0.382 | 0.41
18 | NCI-H522 |  |  |  |  |  |  |  |  |  |  |  |  |  |  |  | 0.783 | 0.681 | 0.694 | 0.621 | 0.56
19 | NCI-H1563 | 1.14 | 1.15 | 1.18 | 1.26 | 0.943 | 0.894 | 0.902 | 0.732 | 0.522 | 0.443 | 1.25 | 1.25 | 1.02 | 0.534 | 0.466 |  |  |  |  | 
20 | NCI-H1648 |  |  |  |  |  |  |  |  |  |  |  |  |  |  |  | 1.07 | 0.793 | 0.91 | 0.624 | 0.576
